Literature values, collected in PubChem BioAssay AID1259410 (Chemical Carcinogenesis Research Information System (CCRIS), 2018).

Test system: rodent tumor promotion studies, tumor incidence
Test: CCRIS tumor promotion studies

## C=C1C[C@@H]2[C@H](CC[C@]3(C)C(=O)CC[C@@H]23)[C@@]2(C)C=CC(=O)C=C12
Carcinogen: N-Methyl-N-nitrosourea, 684-93-5, Doses [Carcinogen]: 50 mg/kg bw, intraperitoneal, twice on days 43 and 49 of age, Doses [Promoter]: 0, 0.0001, 0.001% in diet from 7 d before carcinogen administration for 12 wks (Study duration 12 wks), Route [Carcinogen]: intraperitoneal, Route [Promoter]: Oral, Species: Rat, Strain/Sex: Sprague-Dawley/Female (19-20/Group)
  outcome: mammary gland: various (statistically significant increase in tumor frequency, b

## CC[C@H](C)[C@H](NC(=O)[C@H](Cc1cnc[nH]1)NC(=O)[C@H](CCSC)NC(=O)[C@H](CS)NC(=O)[C@@H](NC(=O)CNC(=O)CNC(=O)[C@H](CC(N)=O)NC(=O)[C@H](CC(C)C)NC(=O)[C@H](CS)NC(=O)[C@H](Cc1ccc(O)cc1)NC(=O)CNC(=O)[C@H](CC(=O)O)NC(=O)[C@H](Cc1ccc(O)cc1)NC(=O)[C@H](CO)NC(=O)[C@H](CO)NC(=O)[C@@H]1CCCN1C(=O)[C@H](CS)NC(=O)CNC(=O)[C@@H]1CCCN1C(=O)[C@H](Cc1ccc(O)cc1)NC(=O)[C@H](CO)NC(=O)[C@@H](N)CC(N)=O)C(C)C)C(=O)N[C@@H](CCC(=O)O)C(=O)N[C@@H](CO)C(=O)N[C@@H](CC(C)C)C(=O)N[C@@H](CC(=O)O)C(=O)N[C@@H](CO)C(=O)N[C@@H](Cc1ccc(O)cc1)C(=O)N[C@H](C(=O)N[C@@H](CS)C(=O)N[C@@H](CC(N)=O)C(=O)N[C@@H](CS)C(=O)N[C@H](C(=O)N[C@H](C(=O)NCC(=O)N[C@@H](Cc1ccc(O)cc1)C(=O)N[C@@H](CO)C(=O)NCC(=O)N[C@@H](CC(=O)O)C(=O)N[C@@H](CCCNC(=N)N)C(=O)N[C@@H](CS)C(=O)N[C@@H](CCC(N)=O)C(=O)N[C@H](C(=O)N[C@@H](CCCNC(=N)N)C(=O)N[C@@H](CC(=O)O)C(=O)N[C@@H](CC(C)C)C(=O)N[C@@H](CCCNC(=N)N)C(=O)N[C@@H](Cc1c[nH]c2ccccc12)C(=O)N[C@@H](Cc1c[nH]c2ccccc12)C(=O)N[C@@H](CCC(=O)O)C(=O)N[C@@H](CC(C)C)C(=O)N[C@@H](CCCNC(=N)N)C(=O)O)[C@@H](C)O)[C@@H](C)CC)C(C)C)[C@@H](C)O
Carcinogen: 7,12-DIMETHYLBENZ[A]ANTHRACENE, 57-97-6, Doses [Carcinogen]: 0.5% IN ACETONE/HEAVY MINERAL OIL APPLIED TO BOTH CHEEK POUCHES 3/WK FOR 6 WK, Doses [Promoter]: 0, 10 UG/KG BW 3/WK FOR 6 WK BEGINNING 1 WK POST A SIALOADENECTOMY OR SHAM OPERATION AND 2 WK POST CARCINOGEN TREATMENT, Route [Carcinogen]: MUCOUS MEMBRANE, Route [Promoter]: MUCOUS MEMBRANE, Species: HAMSTER, Strain/Sex: SYRIAN/MALE
  outcome: cheek pouch: tumor; forestomach: tumor

## O=C(O)CCC(=O)O
Carcinogen: N-BUTYL-N-(4-HYDROXYBUTYL)NITROSAMINE, 3817-11-6, Doses [Carcinogen]: 0.05% IN DRINKING WATER FOR 4 WK, Doses [Promoter]: 0, 5% IN BASAL DIET BEGINNING POST CARCINOGEN TREATMENT AND CONTINUING FOR 32 WK (STUDY DURATION: 36 WK), Route [Carcinogen]: ORAL, Route [Promoter]: ORAL, Species: RAT, Strain/Sex: F344/MALE
  outcome: urinary bladder: papilloma, carcinoma

## O=C1C2(Cl)C3(Cl)C4(Cl)C(Cl)(Cl)C5(Cl)C3(Cl)C1(Cl)C5(Cl)C24Cl (configuration not stated)
Carcinogen: DIETHYLNITROSAMINE, 55-18-5, Doses [Carcinogen]: 20 MG/KG IN WATER ONCE, Doses [Promoter]: 0, 9 MG/KG 2/WK FOR 27 WK BEGINNING 10 D POST CARCINOGEN DOSE (STUDY DURATION: 30 WK), Route [Carcinogen]: GAVAGE, Route [Promoter]: SUBCUTANEOUS, Species: RAT, Strain/Sex: SPRAGUE-DAWLEY/FEMALE
  outcome: liver: hepatocellular carcinoma

## CCCCCC1(CCCCCC(=O)OC23C(OC(C)=O)C(C)C4(O)C(C=C(CO)CC5(O)C(=O)C(C)=CC54)C2C3(C)C)OCC(C)(C)N1[O] (configuration not stated)
Carcinogen: 7,12-DIMETHYLBENZ[A]ANTHRACENE, 57-97-6, Doses [Carcinogen]: 100 NMOL ONCE, Doses [Promoter]: 0, 20 NMOL 2/WK FOR 24 WK BEGINNING 1 WK POST CARCINOGEN DOSE (STUDY DURATION: 25 WK), Route [Carcinogen]: DERMAL, Route [Promoter]: DERMAL, Species: MOUSE, Strain/Sex: NMRI/FEMALE
  outcome: skin: tumor

## C=CC(C)(C)c1ccc2c3c(c[nH]c13)C[C@@H](CO)NC(=O)[C@H](C(C)C)N2C
Carcinogen: DIMETHYLBENZ[A]ANTHRACENE, 57-97-6, Doses [Carcinogen]: 100 UG IN 100 µL ACETONE APPLIED TO THE BACK ONCE, Doses [Promoter]: 5 UG IN 100 ML ACETONE APPLIED TO THE BACK 2/WK FOR 15 WK BEGINNING 1 WK POST CARCINOGEN DOSE THEN 10 UG 2/WK FOR 15 WK, Route [Carcinogen]: DERMAL, Route [Promoter]: DERMAL, Species: MOUSE, Strain/Sex: CD-1/FEMALE
  outcome: skin: papilloma

## CC(C)(c1cc(Br)c(O)c(Br)c1)c1cc(Br)c(O)c(Br)c1
Carcinogen: N-bis(2-hydroxypropyl)nitrosamine, 53609-64-6, Doses [Carcinogen]: 0.08 and 0.2% in drinking water for 4 wks at 7-10 wks of age, study duration to 39 wk of age, Doses [Promoter]: In utero (0.01, 0.1, or 1% in diet of dams) and then in drinking water of weaned offspring for 2 wk, Route [Carcinogen]: Oral, Route [Promoter]: In utero and in drinking water, Species: Rat, Strain/Sex: F344/Male (12-15/group)
  outcome: none found
